The target in test [1] is T1, Asp49 BthTX-II phospholipase A2 (Bothrops jararacussu, UniProt P45881).
T1 construct: isolated myotoxins (BthTX-I and II); from tissue; host or cells: venom of B. jararacussu
T1 sequence (P45881 17-138): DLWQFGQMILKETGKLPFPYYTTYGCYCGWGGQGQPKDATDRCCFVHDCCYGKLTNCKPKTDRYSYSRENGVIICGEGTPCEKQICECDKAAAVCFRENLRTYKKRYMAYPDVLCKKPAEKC
Kind of test: myotoxic activity in mice, BthTX-II. Format: in vivo, B. jararacussu.

The target in test [2] is T2, Lys49 BthTX-I phospholipase A2 (Bothrops jararacussu, UniProt Q90249).
T2 construct: isolated myotoxins (BthTX-I and II); from tissue; host or cells: venom of B. jararacussu
T2 sequence (Q90249 17-137 limits assumed): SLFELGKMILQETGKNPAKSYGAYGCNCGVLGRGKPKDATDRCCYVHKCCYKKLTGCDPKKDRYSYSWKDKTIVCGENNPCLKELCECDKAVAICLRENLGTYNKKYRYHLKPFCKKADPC
Kind of test: myotoxic activity in mice, BthTX-I. Format: in vivo, B. jararacussu.

In test [3] the target is T3, Class III metalloprotease BjussuMP-I (Bothrops jararacussu, UniProt Q1PHZ4).
T3 construct: BjussuMP-I isolated from B. jararacussu; from tissue; host or cells: venom of B. jararacussu
T3 sequence (Q1PHZ4 134-547): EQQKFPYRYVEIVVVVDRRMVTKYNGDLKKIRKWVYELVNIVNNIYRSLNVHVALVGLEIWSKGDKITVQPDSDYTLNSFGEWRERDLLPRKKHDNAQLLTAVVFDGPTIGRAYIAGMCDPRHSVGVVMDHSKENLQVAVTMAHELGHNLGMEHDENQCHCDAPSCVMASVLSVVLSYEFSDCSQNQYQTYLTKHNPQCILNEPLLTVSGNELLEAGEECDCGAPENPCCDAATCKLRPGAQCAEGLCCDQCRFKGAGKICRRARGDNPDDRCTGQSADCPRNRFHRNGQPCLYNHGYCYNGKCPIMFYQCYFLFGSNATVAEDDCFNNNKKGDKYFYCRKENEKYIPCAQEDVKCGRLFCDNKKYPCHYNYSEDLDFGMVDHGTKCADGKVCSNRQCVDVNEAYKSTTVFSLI
Description: proteolytic activity in casein, BjussuMP-I. Format: biochemical, B. jararacussu. Conditions: ratio of 1:10 protease:inhibitor (m/m).

The structures appear in SMILES notation.

As for `COc1ccc2[nH]c(CO)cc(=O)c2c1` [Compound 2, 2-hydroxymethyl-6-methoxy-1,4-dihydro-4-quinolinone], the “effect on myotoxic activity” value in test [1] and in test [2] was “inhibited” in each case. Also, the “inhibition of proteolytic activity” value in test [3] was roughly 70%.
